This is an account of results in ChEMBL document CHEMBL3525989 (Drug Metab Dispos, 2011).

Molecules are shown by their SMILES. A value given as a limit tells only on which side of the number the result lay.

Series [1] deals with T1, Cytochrome P450 3A4 (Homo sapiens, UniProt P08684). Briefly: Inhibition of recombinant CYP3A4 (unknown origin) expressed in baculosomes assessed as decrease in CYP3A4-CO binding at 10 uM preincubated for 5 mins measured after […] by LC-tandem mass spectrometry analysis in presence of 1 mM NADPH. Type of series: ADME. The following applies: recombinant enzyme.
T1 sequence (P08684 whole entry): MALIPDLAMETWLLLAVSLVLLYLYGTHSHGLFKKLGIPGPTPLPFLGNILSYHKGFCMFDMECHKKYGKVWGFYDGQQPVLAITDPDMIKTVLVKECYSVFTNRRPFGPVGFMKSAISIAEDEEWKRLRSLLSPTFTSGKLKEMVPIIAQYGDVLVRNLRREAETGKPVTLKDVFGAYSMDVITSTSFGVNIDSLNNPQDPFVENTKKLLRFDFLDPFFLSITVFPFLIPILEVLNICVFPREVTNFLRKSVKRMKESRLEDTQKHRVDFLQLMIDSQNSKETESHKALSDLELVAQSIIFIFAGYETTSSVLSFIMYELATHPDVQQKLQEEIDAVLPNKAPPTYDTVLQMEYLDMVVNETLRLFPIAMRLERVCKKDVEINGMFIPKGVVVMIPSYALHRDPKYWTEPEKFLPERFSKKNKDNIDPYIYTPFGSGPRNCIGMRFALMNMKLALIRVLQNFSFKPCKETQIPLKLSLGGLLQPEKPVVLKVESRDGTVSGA
The target of series [2] is T1, Cytochrome P450 3A4. In words: Inhibition of recombinant CYP3A4 (unknown origin) expressed in baculosomes assessed as decrease in CYP3A4-CO binding at 10 uM preincubated for 5 mins measured after overnight washout with 100 mM potassium phosphate buffer by LC-tandem mass spectrometry analysis in presence of 1 mM NADPH. Type of series: ADME. Conditions: recombinant enzyme; call rule not given here.

Series [3] concerns the target T2, CYP3A4 (Homo sapiens, UniProt P08684). In words: Inhibition of recombinant CYP3A4 (unknown origin) expressed in baculosomes assessed as enzyme remaining activity at 10 uM measured after 1.5 min in presence of 1 mM NADPH. It is filed as ADME. Conditions: read-out: Activity.
Series [4] concerns the target T1, Cytochrome P450 3A4. Briefly: (§1) Inhibition of recombinant CYP3A4 (unknown origin) expressed in baculosomes in presence of 1 mM NADPH. Type of series: ADME.
The target of series [5] is T2, CYP3A4. The description is as §1. The following applies: human, recombinant CYP3A4 expressed in baculosomes. It is filed as ADME.
For series [6], the target named is T1, Cytochrome P450 3A4. In words: Binding affinity to CYP3A4 (unknown origin). The following applies: read-out: Ks. It is filed as ADME.
For series [7], the target named is T1, Cytochrome P450 3A4. Briefly: Inhibition of recombinant CYP3A4 (unknown origin) expressed in baculosomes in presence of 1 mM NADPH and 1 mM nucleophilic trapping agent potassium cyanide. The following applies: recombinant enzyme. It is filed as ADME.
Series [8] addresses T1, Cytochrome P450 3A4. In words: Inhibition of recombinant CYP3A4 (unknown origin) expressed in baculosomes in presence of 1 mM NADPH and 1 mM nucleophilic trapping agent semicarbazide. It is filed as ADME. The following applies: recombinant enzyme.
The target in series [9] is T1, Cytochrome P450 3A4. In words: Inhibition of recombinant CYP3A4 (unknown origin) expressed in baculosomes in presence of 1 mM NADPH and 1 mM nucleophilic trapping agent N-acetyl lysine. Type of series: ADME. The following applies: recombinant enzyme.
The target in series [10] is T1, Cytochrome P450 3A4. In words: Inhibition of recombinant CYP3A4 (unknown origin) expressed in baculosomes in presence of 1 mM NADPH and 1 mM nucleophilic trapping agent N-acetyl cysteine. It is filed as ADME. Conditions: recombinant enzyme.
Series [11] concerns the target T1, Cytochrome P450 3A4. Briefly: Inhibition of recombinant CYP3A4 (unknown origin) expressed in baculosomes in presence of 1 mM NADPH and 1 mM nucleophilic trapping agent dimethyl pyrroline N-oxide. It is filed as ADME. The following applies: recombinant enzyme.
Series [12] deals with T1, Cytochrome P450 3A4. In words: Inhibition of recombinant CYP3A4 (unknown origin) expressed in baculosomes in presence of 1 mM NADPH and 1 mM nucleophilic trapping agent glutathione. It is filed as ADME. Conditions: recombinant enzyme.
The target of series [13] is T1, Cytochrome P450 3A4. In words: Inhibition of recombinant CYP3A4 (unknown origin) expressed in baculosomes in presence of 1 mM NADPH and 1 mM nucleophilic trapping agent catalase. It is filed as ADME. The following applies: recombinant enzyme.
For series [14], the target named is T2, CYP3A4. In words: Residual activity of recombinant CYP3A4 (unknown origin) expressed in baculosomes at 10 uM measured after 1.5 min in presence of 1 mM NADPH.
In series [15] the target is T1, Cytochrome P450 3A4. Briefly: Inhibition of recombinant CYP3A4 (unknown origin) expressed in baculosomes in presence of 1 mM NADPH and 1 mM nucleophilic trapping agent methyl hydroxylamine. Type of series: ADME. The following applies: recombinant enzyme.
The target in series [16] is T1, Cytochrome P450 3A4. Briefly: Inhibition of recombinant CYP3A4 (unknown origin) expressed in baculosomes in presence of 1 mM NADPH and 1 mM nucleophilic trapping agent superoxide dismutase. Type of series: ADME. The following applies: recombinant enzyme.

T2 sequence (P08684 whole entry): as above

The term Ki denotes a dissociation constant, usually derived from enzyme kinetics or from competition with a known ligand. In general, kinact refers to the rate constant of inactivation at saturating inhibitor. `CC(C)[C@H]1c2ccc(F)cc2CC[C@]1(O)CCN(C)CCCc1nc2ccccc2[nH]1`: the “inhibition (INH)” value on Cytochrome P450 3A4 [1] and at Cytochrome P450 3A4 [2] was “Active” each time. Also, at CYP3A4 [3], the activity at 0.025 h, 10 µM is 60%. The Ki on Cytochrome P450 3A4 [4] stood at 820 nM. The kinact at CYP3A4 [5] was 0.00133 s⁻¹. At Cytochrome P450 3A4 [6], the Kd was found to be 1390 nM.

Usually residual activity stands for the share of the control activity or signal that is left under treatment. Turning to `COCC(=O)O[C@]1(CCN(C)CCCc2nc3ccccc3[nH]2)CCc2cc(F)ccc2[C@@H]1C(C)C` [MIBEFRADIL], the “inhibition (INH)” value on Cytochrome P450 3A4 [7], on Cytochrome P450 3A4 [8], on Cytochrome P450 3A4 [9], on Cytochrome P450 3A4 [1], at Cytochrome P450 3A4 [2] and at Cytochrome P450 3A4 [10] was “Active” throughout. Further, the “inhibition (INH)” value at Cytochrome P450 3A4 [11], at Cytochrome P450 3A4 [12], on Cytochrome P450 3A4 [13], at Cytochrome P450 3A4 [15] and at Cytochrome P450 3A4 [16] was “Active” in each case. Further, on CYP3A4 [14], the residual activity at 0.025 h, 10 µM is less than 20%.
